We go through 29 compounds from patent US12441691B2 (Cytokinetics, Inc., priority 2020, dated 2025).

The assay deals with rabbit skeletal myofibrils (fast skeletal myofibrils). Put plainly: Activation of fast skeletal myofibrils (PUMA assay, AC1.4). It counts as biochemical. Particulars: calcium at pCa25, AC1.4 = concentration at which the compound increased the enzymatic activity. Here is the method:
Preparation of fast skeletal myofibrils: Rabbit skeletal myofibrils were prepared based upon the method of Herrmann et al. (Biochem. 32(28):7255-7263(1993). Myofibrils were prepared from rabbit psoas muscle purchased from Pel-Freez Biologicals (Arkansas) within 2 days of ordering, stored on ice. Minced muscle was homogenized in 10 volumes of ice-cold “standard” buffer (50 mM Tris, pH 7.4, 0.1 M KOAc, 5 mM KCl, 2 mM dithiothreitol (DTT), 0.2 mM phenylmethylsulfonyl fluoride (PMSF), 10 μM leupeptin, 5 μM pepstatin, and 0.5 mM sodium azide) containing 5 mM ethylenediaminetetraacetic acid (EDTA) and 0.5% Triton X-100 using an Omni-Macro homogenizer. Myofibrils were recovered by low speed centrifugation (3000 rpm for 10 minutes) and washed 2 times in the Triton X-100 containing buffer to ensure removal of cellular membrane. Following the Triton washes, myofibrils were washed 3 times in “standard” buffer containing 2 mM magnesium acetate. A final wash in assay buffer (12 mM piperazine-1,4-bis(2-ethanesulfonic acid) (PIPES), pH 6.8, 60 mM KCl, 1 mM DTT) was performed and brought to 10% sucrose for flash freezing in liquid nitrogen and storage at −80° C.
Activation of Fast Skeletal Myofibrils: Fast fiber activators were identified by measuring the enzymatic activity of muscle myofibril preparations using the proprietary PUMA (trademark) (see, e.g., U.S. Pat. Nos. 6,410,254, 6,743,599, 7,202,051, and 7,378,254) assay system. Myofibril preparations consisted of rabbit skeletal muscle (approximately 90% fast fibers) that had been mechanically homogenized and washed with a detergent (Triton X-100) to remove cellular membranes. This preparation retained all of the sarcomeric components in a native conformation and the enzymatic activity was still regulated by calcium. Compounds were tested using a myofibril suspension and a level of calcium sufficient to increase enzymatic activity of the myofibrils to 25% of their maximal rate (termed pCa25). Enzymatic activity was tracked via a pyruvate kinase and lactate dehydrogenase-coupled enzyme system. This assay regenerates myosin-produced ADP into ATP by oxidizing NADH, producing an absorbance change at 340 nm. The buffering system was 12 mM PIPES, 2 mM MgCl2, 1 mM DTT at pH 6.8 (PM12 buffer). […] In Table 9, “Example Compound” refers to the compound labeled with the same number in Table 2.
For `CC(C)[C@H]1C(=O)Nc2ccccc2CN1C(=O)c1cnn(C)c1` [Compound 41, (S)-3-Isopropyl-4-(1-methyl-1H-pyrazole-4-carbonyl)-1,3,4,5-tetrahydro-2H-benzo[e][1,4]diazepin-2-one], the AC1.4 stood at 0.96 µM.
Regarding `CC[C@H](C)[C@H]1C(=O)Nc2cc(F)ccc2CN1C(=O)CO` [Compound 42, (S)-3-((S)-sec-butyl)-8-fluoro-4-(2-hydroxyacetyl)-1,3,4,5-tetrahydro-2H-benzo[e][1,4]diazepin-2-one], the AC1.4 is 0.33 µM.
The result for `CC[C@H](C)[C@H]1C(=O)Nc2cc(F)ccc2CN1C(=O)CCO` [Compound 43, (S)-3-((S)-sec-butyl)-8-fluoro-4-(3-hydroxypropanoyl)-1,3,4,5-tetrahydro-2H-benzo[e][1,4]diazepin-2-one] reads 0.81 µM; that for `CC[C@H](C)[C@H]1C(=O)Nc2c(F)cccc2CN1C(N)=O` [Compound 44, (S)-3-((S)-sec-butyl)-9-fluoro-2-oxo-1,2,3,5-tetrahydro-4H-benzo[e][1,4]diazepine-4-carboxamide], 0.26 µM; that for `CC[C@H](C)[C@H]1C(=O)Nc2ccccc2CN1C(=O)c1cn[nH]c1` [Compound 45, (S)-3-((S)-sec-butyl)-4-(1H-pyrazole-4-carbonyl)-1,3,4,5-tetrahydro-2H-benzo[e][1,4]diazepin-2-one], 0.08 µM.
On to `CC[C@H](C)[C@H]1C(=O)Nc2ccccc2CN1C(=O)c1cnn(C)c1` [Compound 46, (S)-3-((S)-sec-butyl)-4-(1-methyl-1H-pyrazole-4-carbonyl)-1,3,4,5-tetrahydro-2H-benzo[e][1,4]diazepin-2-one], for which the AC1.4 came out at 0.13 µM.
With `CC[C@H](C)[C@H]1C(=O)Nc2ccccc2CN1C(=O)c1cccc(=O)[nH]1` [Compound 47, (S)-3-((S)-sec-butyl)-4-(6-oxo-1,6-dihydropyridine-2-carbonyl)-1,3,4,5-tetrahydro-2H-benzo[e][1,4]diazepin-2-one], the AC1.4 is 0.14 µM.
Regarding `CC[C@H](C)[C@H]1C(=O)Nc2ccccc2CN1C(=O)c1cc[nH]c(=O)c1` [Compound 48, (S)-3-((S)-sec-butyl)-4-(2-oxo-1,2-dihydropyridine-4-carbonyl)-1,3,4,5-tetrahydro-2H-benzo[d][1,4]diazepin-2-one], the AC1.4 came out at 0.06 µM.
As to `CC[C@H](C)[C@H]1C(=O)Nc2ccccc2CN1C(=O)c1cc(O)n[nH]1` [Compound 50, (S)-3-((S)-sec-butyl)-4-(3-hydroxy-1H-pyrazole-5-carbonyl)-1,3,4,5-tetrahydro-2H-benzo[e][1,4]diazepin-2-one], the AC1.4 stood at 0.17 µM.
In the case of `CC[C@H](C)[C@H]1C(=O)Nc2ccccc2CN1C(=O)C(C)(C)O` [Compound 51, (S)-3-((S)-sec-Butyl)-4-(2-hydroxy-2-methylpropanoyl)-1,3,4,5-tetrahydro-2H-benzo[e][1,4]diazepin-2-one], the AC1.4 came to 1.23 µM.
On to `CC[C@H](C)[C@H]1C(=O)Nc2ccccc2CN1c1nc(N)cc(=O)[nH]1` [Compound 52, (S)-4-(4-Amino-6-oxo-1,6-dihydropyrimidin-2-yl)-3-((S)-sec-butyl)-1,3,4,5-tetrahydro-2H-benzo[e][1,4]diazepin-2-one], for which the AC1.4 was found to be 0.03 µM.
Turning to `CC[C@H](C)[C@H]1C(=O)Nc2ccccc2CN1c1nc(C)cc(=O)[nH]1` [Compound 53, (S)-3-((S)-sec-Butyl)-4-(4-methyl-6-oxo-1,6-dihydropyrimidin-2-yl)-1,3,4,5-tetrahydro-2H-benzo[e][1,4]diazepin-2-one], the AC1.4 amounted to 0.10 µM.
As to `CC[C@H](C)[C@H]1C(=O)Nc2ccccc2CN1c1cc(=O)[nH]cn1` [Compound 54, (S)-3-((S)-sec-butyl)-4-(6-oxo-1,6-dihydropyrimidin-4-yl)-1,3,4,5-tetrahydro-2H-benzo[e][1,4]diazepin-2-one], the AC1.4 stood at 0.09 µM.
For `CC[C@H](C)[C@H]1C(=O)Nc2ccccc2CN1c1noc(C)n1` [Compound 55, (S)-3-((S)-sec-Butyl)-4-(5-methyl-1,2,4-oxadiazol-3-yl)-1,3,4,5-tetrahydro-2H-benzo[e][1,4]diazepin-2-one], the AC1.4 is 0.21 µM.
The result for `CC[C@H](C)[C@H]1C(=O)Nc2ccccc2CN1c1ncon1` [Compound 56, (S)-3-((S)-sec-Butyl)-4-(1,2,4-oxadiazol-3-yl)-1,3,4,5-tetrahydro-2H-benzo[e][1,4]diazepin-2-one] reads 0.08 µM; that for `CC[C@H](C)[C@H]1C(=O)Nc2ccccc2CN1c1c(N)c(=O)c1=O` [Compound 57, 3-Amino-4-((S)-3-((S)-sec-butyl)-2-oxo-1,2,3,5-tetrahydro-4H-benzo[e][1,4]diazepin-4-yl)cyclobut-3-ene-1,2-dione], 0.03 µM.
The result for `CC[C@H](C)[C@H]1C(=O)Nc2ccccc2CN1C(=O)N(C)C` [Compound 58, (S)-3-((S)-sec-butyl)-N,N-dimethyl-2-oxo-1,2,3,5-tetrahydro-4H-benzo[e][1,4]diazepine-4-carboxamide] reads 0.13 µM; that for `CC[C@H](C)[C@H]1C(=O)Nc2ccccc2CN1C(=O)N1CC(OC)C1` [Compound 59, (S)-3-((S)-sec-butyl)-4-(3-methoxyazetidine-1-carbonyl)-1,3,4,5-tetrahydro-2H-benzo[e][1,4]diazepin-2-one], 0.17 µM; that for `CC[C@H](C)[C@H]1C(=O)Nc2ccccc2CN1c1ncc(N)c(OC)n1` [Compound 60, (S)-4-(5-Amino-4-methoxypyrimidin-2-yl)-3-((S)-sec-butyl)-1,3,4,5-tetrahydro-2H-benzo[e][1,4]diazepin-2-one], 0.07 µM.
Turning to `CC[C@H](C)[C@H]1C(=O)Nc2ccccc2CN1c1ncncn1` [Compound 61, (S)-3-((S)-sec-Butyl)-4-(1,3,5-triazin-2-yl)-1,3,4,5-tetrahydro-2H-benzo[e][1,4]diazepin-2-one], the AC1.4 amounted to 0.07 µM.
Take `CC[C@H](C)[C@H]1C(=O)Nc2ccccc2CN1CCO` [Compound 62, (S)-3-((S)-sec-Butyl)-4-(2-hydroxyethyl)-1,3,4,5-tetrahydro-2H-benzo[e][1,4]diazepin-2-one]: the AC1.4 came out at 2.25 µM.
For `CC[C@H](C)[C@H]1C(=O)Nc2ccccc2C(C)(C)N1C(N)=O` [Compound 63, (S)-3-((S)-sec-Butyl)-5,5-dimethyl-2-oxo-1,2,3,5-tetrahydro-4H-benzo[e][1,4]diazepine-4-carboxamide], the AC1.4 stood at 0.10 µM.
In the case of `CC[C@H](C)[C@H]1C(=O)Nc2cccc(Cl)c2CN1C(=O)N1CC(O)C1` [Compound 66, (S)-3-((S)-sec-butyl)-6-chloro-4-(3-hydroxyazetidine-1-carbonyl)-1,3,4,5-tetrahydro-2H-benzo[e][1,4]diazepin-2-one], the AC1.4 amounted to 3.00 µM.
In the case of `CC[C@H](C)[C@H]1C(=O)Nc2cccc(Br)c2CN1C(N)=O` [Compound 67, (S)-6-bromo-3-((S)-sec-butyl)-2-oxo-1,2,3,5-tetrahydro-4H-benzo[e][1,4]diazepine-4-carboxamide], the AC1.4 came out at 2.15 µM.
Take `CC[C@H](C)[C@H]1C(=O)Nc2cccc(C3CC3)c2CN1C(N)=O` [Compound 68, (S)-3-((S)-sec-butyl)-6-cyclopropyl-2-oxo-1,2,3,5-tetrahydro-4H-benzo[e][1,4]diazepine-4-carboxamide]: the AC1.4 is 4.30 µM.
The result for `CC[C@H](C)[C@H]1C(=O)Nc2ccc(F)cc2CN1C(C)=O` [Compound 69, (S)-4-acetyl-3-((S)-sec-butyl)-7-fluoro-1,3,4,5-tetrahydro-2H-benzo[e][1,4]diazepin-2-one] reads 0.72 µM.
Take `CC[C@H](C)[C@H]1C(=O)Nc2ccc(F)cc2CN1C(=O)c1ccn[nH]1` [Compound 70, (S)-3-((S)-sec-butyl)-7-fluoro-4-(1H-pyrazole-5-carbonyl)-1,3,4,5-tetrahydro-2H-benzo[e][1,4]diazepin-2-one]: the AC1.4 stood at 0.23 µM.
`CC[C@H](C)[C@H]1C(=O)Nc2ccc(F)cc2CN1/C(N)=N\C#N` [Compound 71, (S,Z)-3-((S)-sec-butyl)-N′-cyano-7-fluoro-2-oxo-1,2,3,5-tetrahydro-4H-benzo[e][1,4]diazepine-4-carboximidamide]: the AC1.4 turned out to be 0.15 µM.
For `CC[C@H](C)[C@H]1C(=O)Nc2ccc(F)cc2CN1C(=O)N1CC(O)C1` [Compound 72, (S)-3-((S)-sec-butyl)-7-fluoro-4-(3-hydroxyazetidine-1-carbonyl)-1,3,4,5-tetrahydro-2H-benzo[e][1,4]diazepin-2-one], the AC1.4 is 0.41 µM.
